Test results reported in publication PMC6268968 (Molecules, 2012).

Target: T1, Acetylcholinesterase (Electrophorus electricus, UniProt O42275)
T1 construct: gene ache
Assay: Ellman spectrophotometric assay (acetylthiocholine/DTNB, […] nm)
Assay type: biochemical

T1 sequence (O42275 24-633): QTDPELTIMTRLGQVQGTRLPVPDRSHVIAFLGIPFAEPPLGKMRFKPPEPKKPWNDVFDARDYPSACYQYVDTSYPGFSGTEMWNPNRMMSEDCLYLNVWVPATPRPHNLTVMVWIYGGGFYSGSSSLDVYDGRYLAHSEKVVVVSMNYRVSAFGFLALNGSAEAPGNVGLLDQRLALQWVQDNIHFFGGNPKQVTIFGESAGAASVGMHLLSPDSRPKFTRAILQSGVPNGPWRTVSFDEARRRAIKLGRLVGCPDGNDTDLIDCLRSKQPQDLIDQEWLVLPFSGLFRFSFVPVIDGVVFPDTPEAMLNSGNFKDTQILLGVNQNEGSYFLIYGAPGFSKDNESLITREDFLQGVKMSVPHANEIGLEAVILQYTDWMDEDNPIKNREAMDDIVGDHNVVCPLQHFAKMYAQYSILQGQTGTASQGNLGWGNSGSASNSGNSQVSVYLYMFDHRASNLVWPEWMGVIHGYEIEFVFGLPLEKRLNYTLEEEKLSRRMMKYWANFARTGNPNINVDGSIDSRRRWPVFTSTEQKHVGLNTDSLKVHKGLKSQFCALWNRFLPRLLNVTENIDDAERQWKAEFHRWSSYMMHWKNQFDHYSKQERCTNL

`O=C(/C=C/c1ccc(O)cc1)NCCc1ccc(O)cc1` [compound 1, trans-N-coumaroyltyramine] and `O=C(/C=C/c1ccc(O)c(O)c1)NCCc1ccc(O)cc1` [compound 3, trans-N-caffeoyltyramine] are within 1.5-fold of each other in IC50: 98.3 µM for the first, 84.3 µM for the second.

Work on `COc1cc(/C=C/C(=O)NCCc2ccc(O)cc2)ccc1O` [compound 2, trans-N-feruloyltyramine] yielded an IC50 of 86 µM.
